Reference: patent publication US12564631B2, “Phytosphingosine derivatives as adjuvants in immune stimulation” (Helmholtz-Zentrum für Infektionsforschung GmbH, priority 2020, dated 2026)
Entries after “also recorded” stand apart in the source; their conditions may differ.

How the values were obtained:
CD19+ B cells = assay: CFSE proliferation assay of CD19+ B cells after interaction with Ova/adjuvant-matured bone marrow derived DCs (APC); assay type: cell-based, mice; conditions: DCs restimulated with Ovalbumin + 10 μg compound for 24 h; interaction with APC for 5 days; FIG. 3A
Procedure: FIG. 3A: Cell proliferation tracked by CFSE dilution of B cells after interaction with matured Antigen Presenting Cells (APC). With every cell division, the CFSE signal strength is approximately halved. The observed cell numbers indicate the ratio of proliferating viable CD19+ B cells.
(§1) In order to assess the properties of the inventive compounds in antigen-specific T and B cell stimulation, the compounds were administered to cultured bone marrow cells in a CFSE assay.
(§2) Briefly, femurs and Tibiae of female 4-12 weeks old C57Bl6 (or BALB/c for TCR HA) were removed and purified from the surrounding muscle tissue (Kleenex tissues). Intact Bones were left in 70% ethanol for 2-5 min for disinfection. Both ends were cut with scissors and the bone marrow were flushed with PBS using a syringe with a 0.45 mm diameter needle, clusters were disintegrated by vigorous pipetting.
(§3) In order to obtain activated antigen presenting dendritic cells (DCs), bone marrow cells were cultured with GM-CSF. On Day 0, cells were seeded in a concentration of 2×10^6 cells per 100 mm dish (bacteriological petri dishes) in 10 ml RPMI-10 (100 U Pen/100 μg Strept/2 mM Glutamin/50 μm ß-Mercaptoethanol/10% FCS heat-inactivated and filtered 0.22 μm Filter) containing 200 Units GM-CSF. On Day 3 another 10 ml RPMI-10 containing 200 U GM-CSF were added to the plates. On Day 6 half of the culture supernatants (10 ml) were collected, centrifuged and the cell pellet resuspended in 10 ml fresh RPMI-10/200 U GM-CSF and given back into the original plates.
(§4) Subsequently, the DCs were incubated with Ovalbumin (as antigen) alone or co-administered with known adjuvants, such as α-GalCerMPEG, aßGalCerMPEG or TLR2/6 ligand (BPPcysMPEG), or the novel phytosphingosine derivatives of the present invention. The activation of DCs was controlled by FACS analysis of different CD markers, such as CD40, CD54, CD80, CD86, CD83, MHCI and MHCII.
(§5) The effect of the compounds of the present invention was then ascertained via co-incubation of naïve T or B cells, obtained from mice (OTI or OTII mice) with previous exposure to the Ova antigen, with DCs that had been treated with the compounds of the invention.
CFSE staining of the CD4+ or CD8+ naïve T cells is then carried out according to standard procedures. Subsequently, 2-5×10^4 DCs (as mature antigen presenting cells APCs) are incubated with 4×10^5 CFSE+ T cells (OTI or OTII) per well (ratio DC/T cells is […]). A CFSE proliferation assay is then conducted, using on Day +5 or on Day +7 a FACS analysis (CFSE/LD/CD4/CD8/CD19/Thy1.1), providing a cell count for the desired cell type based on CFSE. With every cell division, the CFSE signal strength is approximately halved. The cells marked with CFSE can therefore be used to determine the proliferation of CD19+ B cells, CD4+ or CD8+ T cells in response to treatment with activated DCs, that were treated with or without the compounds of the invention.
As is shown in FIG. 3A, cell proliferation of B cells is tracked by CFSE dilution after interaction with APCs. With every cell division, the CFSE signal strength is approximately halved. Therefore, the compounds of the invention show an effect on inducing antigen specific CD19+ cell proliferation.
On day −1, mature DCs were restimulated with Ovalbumin (antigen) co-administered with 10 μg of the different novel phytosphingosine derivatives (0964-1917) or with positive controls (α-GalCerMPEG, aßGalCerMPEG, CDA or BPPcysPEGdef) for 24 h.

splenocytes = assay: Unspecific proliferation assay of splenocytes ([3H]thymidine incorporation); assay type: cell-based, mice; conditions: for induction of unspecific proliferation in splenocytes: summary statement
Procedure: FIG. 2: Analysis of unspecific proliferative responses of murine cells stimulated without or with enhanced concentrations of the Phytosphingosine-compounds. Splenocytes from mice were re-stimulated for 96 h with different concentrations of adjuvant (1, 10 and 20 μg/ml). The results are presented by are expressed (A-C) as counts per minute (cpm) and (D-F) stimulation index (SI) being the ratio of [^3H]-thymidine uptake of stimulated versus non-stimulated samples. (A) and (D) show data for α-GalCer controls, (B) and (E) show data for IPB1901-1910, and (C) and (F) show data for IPB1911-1917.
In order to assess the properties of the inventive compounds in antigen-unspecific immune response stimulation the compounds were administered to splenocytes in an established proliferation assay.
For the proliferation assay, splenocytes (5×10^6 cells/ml) are seeded at 100 μl per well in a U-bottomed 96-well microtiter plate (Sarstedt Inc., Newton, N.C.) and cultured in quadruplicates 4 days in the presence of enhanced concentrations of adjuvant (1, 10 and 20 μg/ml)), 5 μg/ml of Concanavalin A (max); or medium alone. Eighteen hours before harvesting, 1 μCi of [3H]thymidine (Amersham International, Freiburg, Germany) is added to each well. Cells are harvested on paper filters (Filtermat A; Wallac, Freiburg, Germany) using a cell harvester (Inotech, Wohlen, Switzerland) and the incorporation of [3H] thymidine into the DNA of proliferating cells is determined using a scintillation counter (Wallac 1450, Micro-Trilux).

CD8+ T cells = assay: CFSE proliferation assay of CD8+ T cells after interaction with Ova/adjuvant-matured bone marrow derived DCs (APC); assay type: cell-based, mice; conditions: for effect to induce antigen specific CD8+ T cell proliferation: DCs restimulated with Ovalbumin + 10 μg compound for 24 h, interaction with APC for 5 days, FIG. 3C
Description: FIG. 3C: Cell proliferation tracked by CFSE dilution of CD8+ T cells after interaction with matured Antigen Presenting Cells (APC). With every cell division, the CFSE signal strength is approximately halved. The shown cell numbers indicate the ratio of proliferated live CD8+ T cells
(§6) FIG. 4: Effect after treatment with IPB 0964-1917—Cell proliferation tracked by CFSE loss of T cells after interaction with matured Antigen Presenting Cells (APC). With every cell division, the CFSE signal strength is reduced. The shown cell numbers indicate the ratio of proliferating T and B cells (7 steps are shown). (A) Numbers of CD4+ T cells are shown at different proliferation steps up to 7 days measuring the loss of CFSE. Naïve cells were treated with one of IPB1901-1912 together with DCs activated with Ova prior to the CFSE assay. (B) Numbers of CD4+ T cells are shown at different proliferation steps up to 7 days measuring the loss of CFSE. Naïve cells were treated with one of IPB2033-2044 together with DCs activated with Ova prior to the CFSE assay. (C) Numbers of CD8+ T cells are shown at different proliferation steps up to 7 days measuring the loss of CFSE. Naïve cells were treated with one of IPB1901-1912 together with DCs activated with Ova prior to the CFSE assay. (D) Numbers of CD8+ T cells are shown at different proliferation steps up to 7 days measuring the loss of CFSE. Naïve cells were treated with one of IPB2033-2044 together with DCs activated with Ova prior to the CFSE assay.
as §1, §2, §3, §4, §5
(§7) Naïve T cells were derived from LN/spleen from OTI or OTII mice. The MagniSort™ Mouse CD4 naïve or CD8 naïve T cell Enrichment Kit is designed for the magnetic separation of CD4 or CD8 naïve T cells by negative selection from mouse spleens or lymph nodes utilizing a biotinylated antibody cocktail and streptavidin-coated magnetic beads. Undesired cells are bound by antibody (Anti-Mouse CD8 or CD4/CD11b CD19/CD24/CD44/CD45R(B220)/CD49b(Integrin α 2)/Ly-6G (Gr-1)/γδ TCR/TER-119) and then magnetic beads that, when placed in a magnetic field, leave CD4 or CD8 naïve T cells untouched and free in solution. […]

CD4+ T cells = assay: CFSE proliferation assay of CD4+ T cells after interaction with Ova/adjuvant-matured bone marrow derived DCs (APC); assay type: cell-based, mice; conditions: for capacity to induce antigen specific CD4+ T cell proliferation: DCs restimulated with Ovalbumin + 10 μg compound for 24 h, interaction with APC for 5 days, FIG. 3B
Description: FIG. 3B: Cell proliferation tracked by CFSE dilution of CD4+ T cells after interaction with matured Antigen Presenting Cells (APC). With every cell division, the CFSE signal strength is approximately halved. The shown cell numbers indicate the ratio of proliferated live CD4+ T cells.
as §6, §1, §2, §3, §4, §5, §7

Ova-specific IgG = Ova-specific IgG titer (ELISA) in sera of mice immunized with Ovalbumin plus adjuvant; assay type: in vivo; conditions: Ovalbumin 30 μg + adjuvant 15 μg, days 0, 14, 28, sera 14 days after last immunization
Procedure: FIG. 5: Immunization protocol—Administration (intramuscular route) of Ovalbumin with adjuvants. Ovalbumin (30 μg) was co-administered (intramuscular) without or with different adjuvants, such as IPB 2033-2044, c-di-AMP or aßGalCerMPEG (15 μg), on days 0, 14 and 28.
FIG. 7: Systemic humoral immune responses induced in mice. Shown is the IgG titer as a readout of systemic humoral immune responses induced in mice after three immunizations with Ovalbumin co-administered with different adjuvants via intramuscular route. Ova-specific IgG titers were measured via ELISA in sera 14 days after the last immunization.
FIG. 9: Immunization protocol—Administration (intranasal route) of Ovalbumin with adjuvants. Immunization protocol: Mucosal administration (intranasal (i.n.) route) of Ovalbumin (30 μg) co-administered without or with different adjuvants, such as IPB 2033-2044, c-di-AMP or aßGalCerMPEG (15 μg), on days 0, 14 and 28.
FIG. 11: Systemic humoral immune responses induced in mice. Shown is the IgG titer as a readout of systemic humoral immune responses induced in mice after three immunizations with Ovalbumin co-administered with different adjuvants via intranasal route. Ova-specific IgG titers in sera 14 days after the last immunization.
Groups of mice (3-5 animals) were immunized either intranasal (i.n.) or intramuscular (i.m.) on days 0, 14 and 281 with PBS, or with Ovalbumin (30 μg); the latter were administered alone or with different adjuvants—c-di-AMP, aßGalCerMPEG or IPB 2033 to 2044—made up to a maximal volume of 20 μl (i.n.) or 50 μl (i.m.) in PBS.
Blood samples were collected on days 1, 14, 28 and 42 via retro-bulbar bleeding. Spleens of vaccinated mice were aseptically removed. For the subsequent methods, cell suspensions of spleens (n=5) of each immunized groups were prepared and erythrocytes were lysed. These splenocyte pools of each group were cultured in the presence of different concentrations of Ovalbumin; controls received 5 μg/mL concanavalin A. The incorporation of [^3H] thymidine into the DNA of proliferating cells was determined using a scintillation counter (Wallac 1450, Micro-Trilux).
The Ova-specific antibodies were determined in serum samples by ELISA. Endpoint titers were expressed as reciprocal values of the last dilution, which gave an optical density at 405 nm of two times above the values of the negative controls. For calculation purposes, negative samples were assigned an arbitrary titer of the lowest dilution measured.
As described in the protocols above, groups of mice (3-5 animals) were immunized either intranasal (i.n.) or intramuscular (i.m.) on days 0, 14 and 281 with PBS, or with Ovalbumin (30 μg); the latter were administered alone or with different adjuvants—c-di-AMP, aßGalCerMPEG or IPB 2033 to 2044—is shown in FIG. 5-11, intramuscular.

SMILES	capacity to induce antigen specific CD19+ B cell proliferation (CD19+ B cells)	induction of unspecific proliferation in splenocytes (splenocytes)	effect to induce antigen specific CD8+ T cell proliferation (CD8+ T cells)	Stimulation index (SI) (splenocytes; splenocytes restimulated 96 h with 1, 10 and 20 μg/ml compound, ratio of [3H]-thymidine uptake of stimulated versus non-stimulated samples, FIG. 2E/2F)	capacity to induce antigen specific CD4+ T cell proliferation (CD4+ T cells)	stimulation of antigen specific IgG production compared to control aßGalCerMPEG+ova (Ova-specific IgG; intramuscular (i.m.), FIG. 7)	stimulation of antigen specific IgG production compared to control aßGalCerMPEG+ova (Ova-specific IgG; intranasal (i.n.), FIG. 11)	stimulating effect of CD8+ T cells versus controls with only antigen Ova (CD8+ T cells; CFSE loss up to 7 days, DCs activated with Ova + 10 μg compound, FIG. 4C/4D)	stimulating effect of CD4+ T cells versus controls with only antigen Ova (CD4+ T cells; CFSE loss up to 7 days, DCs activated with Ova + 10 μg compound, FIG. 4A/4B)
CCCCCCCCCCCCCCNC(=O)CN(C(=O)[C@@H](Cc1ccccc1)NC(C)=O)[C@@H](CO[C@H]1OC(CO)[C@H](O)C(O)C1O)[C@H](O)[C@H](O)CCCCCCCCCCCCCC (stereo partly shown) [IPB 1904]	particularly high capacity; also recorded: beneficial capacity	beneficial induction of unspecific proliferation							
CCCCCCCCCCCCCCCCCCCCCCCC(=O)N(CC(=O)NCCC(=O)O)[C@@H](CO[C@H]1OC(CO)[C@H](O)C(O)C1O)[C@H](O)[C@H](O)CCCCCCCCCCCCCC (stereo partly shown) [IPB 1910]		beneficial induction of unspecific proliferation	strong effect; also recorded: beneficial effect	ca. 2	high capacity; also recorded: beneficial capacity				
CCCCCCCCCCCCCCCCCCCCCCCC(=O)N(CC(=O)NCC(OC)OC)[C@@H](CO[C@H]1OC(CO)[C@H](O)C(O)C1O)[C@H](O)[C@H](O)CCCCCCCCCCCCCC (stereo partly shown) [IPB 1911]		beneficial induction of unspecific proliferation	strong effect; also recorded: beneficial effect		high capacity; also recorded: beneficial capacity				
CCCCCCCCCCCCCCCCCCCCCCCCCC(=O)N(CC(=O)NC1CCCCC1)[C@@H](CO[C@H]1OC(CO)[C@H](O)C(O)C1O)[C@H](O)[C@H](O)CCCCCCCCCCCCCC (stereo partly shown) [IPB 2039]						improved stimulation	improved stimulation	stimulating effect of CD8+ T cells beyond controls	stimulating effect of CD4+ T cells beyond controls
